Test results: ChEMBL document CHEMBL2424636, “Synthesis and anticancer activity evaluation of new 1,2,3-triazole-4-carboxamide derivatives” (2013)

Columns and labels:
Assay type in all cases: functional
MCF7 = assay: Cytotoxicity against human MCF7 cells assessed as cell growth at 10^-5 M after 48 hrs by SRB assay; conditions: MCF7, 48 h, read-out: Activity
A498 = assay: Cytotoxicity against human A498 cells assessed as cell growth at 10^-5 M after 48 hrs by SRB assay; conditions: A498, 48 h, read-out: Activity
RPMI-8226 = assay: Cytotoxicity against human RPMI8226 cells assessed as cell growth at 10^-5 M after 48 hrs by SRB assay; conditions: RPMI-8226, 48 h, read-out: Activity
NCI-H522 = assay: Cytotoxicity against human NCI-H522 cells assessed as cell growth at 10^-5 M after 48 hrs by SRB assay; conditions: NCI-H522, 48 h, read-out: Activity
K562 = assay: Cytotoxicity against human K562 cells assessed as cell growth at 10^-5 M after 48 hrs by SRB assay; conditions: K562, 48 h, read-out: Activity
HOP-92 = assay: Cytotoxicity against human HOP92 cells assessed as cell growth at 10^-5 M after 48 hrs by SRB assay; conditions: HOP-92, 48 h, read-out: Activity
HL-60(TB) = assay: Cytotoxicity against human HL-60(TB) cells assessed as cell growth at 10^-5 M after 48 hrs by SRB assay; conditions: HL-60, 48 h, read-out: Activity
MDA-MB-468 = assay: Cytotoxicity against human MDA-MB-468 cells assessed as cell growth at 10^-5 M after 48 hrs by SRB assay; conditions: MDA-MB-468, 48 h, read-out: Activity
UO-31 = assay: Cytotoxicity against human UO31 cells assessed as cell growth at 10^-5 M after 48 hrs by SRB assay; conditions: UO-31, 48 h, read-out: Activity
SF-539 = assay: Cytotoxicity against human SF539 cells assessed as cell growth at 10^-5 M after 48 hrs by SRB assay; conditions: SF-539, 48 h, read-out: Activity
IGROV-1 = assay: Cytotoxicity against human IGROV1 cells assessed as cell growth at 10^-5 M after 48 hrs by SRB assay; conditions: IGROV-1, 48 h, read-out: Activity
SNB-75 = assay: Cytotoxicity against human SNB75 cells assessed as cell growth at 10^-5 M after 48 hrs by SRB assay; conditions: SNB-75, 48 h, read-out: Activity
UACC-62 = assay: Cytotoxicity against human UACC62 cells assessed as cell growth at 10^-5 M after 48 hrs by SRB assay; conditions: UACC-62, 48 h, read-out: Activity
PC-3 = assay: Cytotoxicity against human PC3 cells assessed as cell growth at 10^-5 M after 48 hrs by SRB assay; conditions: PC-3, 48 h, read-out: Activity
HOP-62 = assay: Cytotoxicity against human HOP62 cells assessed as cell growth at 10^-5 M after 48 hrs by SRB assay; conditions: HOP-62, 48 h, read-out: Activity
SR = assay: Cytotoxicity against human SR cells assessed as cell growth at 10^-5 M after 48 hrs by SRB assay; conditions: read-out: Activity
CAKI-1 = assay: Cytotoxicity against human Caki1 cells assessed as cell growth at 10^-5 M after 48 hrs by SRB assay; conditions: CAKI-1, 48 h, read-out: Activity
A549 = assay: Cytotoxicity against human A549/ATCC cells assessed as cell growth at 10^-5 M after 48 hrs by SRB assay; conditions: A549, 48 h, read-out: Activity

## Nc1c(C(=O)Nc2ccc(F)cc2)nnn1-c1cccc(C(F)(F)F)c1
MCF7
  growth at 10 µM: 82.5%
A498
  growth at 10 µM: 81.7%
RPMI-8226
  growth at 10 µM: 81.4%

## Nc1c(C(=O)NC2CCCC2)nnn1-c1cccc(C(F)(F)F)c1
A498
  growth at 10 µM: 89.1%
NCI-H522
  growth at 10 µM: 87%

## COc1ccc(NC(=O)c2nnn(-c3cccc(C(F)(F)F)c3)c2N)c(OC)c1
K562
  growth at 10 µM: 71.7%
HOP-92
  growth at 10 µM: 77.3%
HL-60(TB)
  growth at 10 µM: 78.4%

## Nc1c(C(=O)c2c[nH]c3ccccc23)nnn1-c1ccccc1
MCF7
  growth at 10 µM: 73.7%
MDA-MB-468
  growth at 10 µM: 78.5%

## Cc1c(C(=O)Nc2cccc(C(F)(F)F)c2)nnn1-c1ccc2noc(-c3ccccc3)c2c1
K562
  growth at 10 µM: 89.8%
UO-31
  growth at 10 µM: 78.5%

## COc1cccc(NC(=O)c2nnn(-c3ccc4noc(-c5ccc(Cl)cc5)c4c3)c2C)c1
SF-539
  growth at 10 µM: 54.1%
IGROV-1
  growth at 10 µM: 49.9%
HOP-92
  growth at 10 µM: 61.5%
SNB-75
  growth at 10 µM: 46.6%
NCI-H522
  growth at 10 µM: 62%
MDA-MB-468
  growth at 10 µM: 56.6%

## Cc1c(C(=O)NCc2ccco2)nnn1-c1ccc2noc(-c3ccc(Cl)cc3)c2c1
A498
  growth at 10 µM: 56.2%
RPMI-8226
  growth at 10 µM: 65.3%
MDA-MB-468
  growth at 10 µM: 68%
UACC-62
  growth at 10 µM: 64.2%
UO-31
  growth at 10 µM: 52%

## CCc1c(C(=O)Nc2ccccc2Cl)nnn1-c1ccc2noc(-c3ccccc3)c2c1
PC-3
  growth at 10 µM: 60.6%
HOP-62
  growth at 10 µM: 74.2%
HOP-92
  growth at 10 µM: 58.4%
RPMI-8226
  growth at 10 µM: 76.2%

## CCc1c(C(=O)Nc2cccc(Cl)c2)nnn1-c1ccc2noc(-c3ccccc3)c2c1
MCF7
  growth at 10 µM: 81.7%
SR
  growth at 10 µM: 77.6%
UO-31
  growth at 10 µM: 82.6%

## CCc1c(C(=O)Nc2ccc(Cl)cc2)nnn1-c1ccc2noc(-c3ccccc3)c2c1
NCI-H522
  growth at 10 µM: 88.9%
SR
  growth at 10 µM: 85.1%
UACC-62
  growth at 10 µM: 83.6%
UO-31
  growth at 10 µM: 67.8%

## Cc1c(C(=O)Nc2ncc(Cc3ccccc3)s2)nnn1-c1ccccc1
CAKI-1
  growth at 10 µM: 80%
A549
  growth at 10 µM: 80.3%
